# Measured values reported in patent US20220087969A1, “METHOD FOR TREATING ASTHMA” (Olatec Therapeutics LLC, priority 2019, published 2022).
# Experiments:
# [1] = tested on: OVA-induced allergic airway inflammation; assay: Inflammatory cell infiltrate in lung tissue, OVA model, oral dapansutrile in food; format: in vivo; conditions: 7.5 g/kg in food, treated vs asthmatic mice, p<0.05
# Method: The experimental protocols of the mouse model were the same as those described in Example 1, except dapansutrile was administered orally by food. The already-sensitized mice were fed ad libidum with food pellets containing 7.5 g/kg dapansutrile starting on day 22 for one week; the first aerosol challenge was on day 26. Mice typically consume about 4 g of food per day, resulting in an approximate daily dose of 0 mg/kg/day for control groups and 1,000 mg/kg/day for the treatment groups. […] OVA-sensitized, OVA-challenged asthmatic controls (asthmatic) were fed with control food pellets without dapansutrile. […] The label on the y-axis reads “volume of inflammatory cell infiltrate per basal membrane area (μm^3/μm^2)”. The inflammatory cells were counted within a specific distance around the airways using a microscope with the computer assisted stereological toolbox (CAST) system. These counts were set in ratio to the basal membrane to normalize within each microscopic slide to avoid slide-dependent differences.
# [2] = tested on: IFN-γ, TNFα, IL-1β, IL-4, IL-5, IL-6, IL-10, IL-13, and IL17A; assay: Cytometric bead array of cytokines in BALF of Example 1; format: in vivo, C57BL/6j mice; conditions: 60 mg/kg i.p., treated vs asthmatic mice
# Text: Cytometric bead arrays were used as a method to assess the concentration of cytokines of IFN-γ, TNFα, IL-1β, IL-4, IL-5, IL-6, IL-10, IL-13, and IL17A) in the BALF of Example 1. The beads in this array were coated with antibodies specific against a variety of cytokines, some relevant and known to be affected by NLRP3 signaling.
structure (smiles),measurement,setting,value
"CS(=O)(=O)CCC#N [dapansutrile, 3-methanesulfonylpropionitrile]",number of inflammatory cells in lung tissue (volume of inflammatory cell infiltrate per basal membrane area),[1],significantly lower
same,concentrations of all measured cytokines in BALF,[2],some reduction
same,IL-1β concentration in BALF,[2]; p<0.001,statistically significant reduction
same,IL-6 concentration in BALF,[2]; p<0.05,statistically significant reduction
